Broadly, the IC50 is the concentration needed to halve the response being measured. Read a low IC50 as greater potency in that assay.

This note sets out measurements from ChEMBL document CHEMBL1145313, “Identification of potent and highly selective chiral tri-amine and tetra-amine mu opioid receptors ligands: an example of lead optimization using mixture-based libraries” (Bioorg Med Chem Lett, 2006).

Structures are written as SMILES.

Assay [1] addresses Mu-type opioid receptor (Cavia porcellus, UniProt P97266). Briefly: Antagonist activity against mu opioid receptor in guinea-pig ileum assay. It counts as functional, tissue-based.
Assay [2] has as its target Mu-type opioid receptor (Cavia porcellus) (UniProt P97266). Briefly: Activity at mu opioid receptor in guinea-pig ileum assay. The conditions noted are these: filed as antagonist. The class given is functional, tissue-based.
The target in assay [3] is Delta-type opioid receptor (Homo sapiens, UniProt P41143). Briefly: Displacement of [3H]DPDE from delta opioid receptor.
For assay [4], the target named is Kappa-type opioid receptor (Homo sapiens, UniProt P41145). Briefly: Displacement of [3H]U-69593 from kappa opioid receptor.
Assay [5] has as its target Mu-type opioid receptor (Rattus norvegicus, UniProt P33535). Briefly: Displacement of [3H]DAMGO from mu opioid receptor in rat brain homogenate. The class given is tissue-based.

Sequence of Mu-type opioid receptor (Rattus norvegicus, UniProt P33535) (P33535 whole entry): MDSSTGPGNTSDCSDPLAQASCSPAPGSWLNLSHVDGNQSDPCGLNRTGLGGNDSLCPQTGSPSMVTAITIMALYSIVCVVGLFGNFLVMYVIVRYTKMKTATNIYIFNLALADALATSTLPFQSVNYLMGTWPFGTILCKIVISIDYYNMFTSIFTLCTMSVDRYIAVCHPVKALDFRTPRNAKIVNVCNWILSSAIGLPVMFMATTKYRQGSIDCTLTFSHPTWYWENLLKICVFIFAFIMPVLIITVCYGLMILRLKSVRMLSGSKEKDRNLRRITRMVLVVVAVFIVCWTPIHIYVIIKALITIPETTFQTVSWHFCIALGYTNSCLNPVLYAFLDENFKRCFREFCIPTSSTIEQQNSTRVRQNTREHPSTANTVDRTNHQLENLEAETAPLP
Sequence of Mu-type opioid receptor (Cavia porcellus) (P97266 whole entry): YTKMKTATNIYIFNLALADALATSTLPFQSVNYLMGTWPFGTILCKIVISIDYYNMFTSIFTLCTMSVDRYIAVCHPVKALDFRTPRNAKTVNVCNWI
Sequence of Mu-type opioid receptor (Cavia porcellus, UniProt P97266) (P97266 whole entry): as above
Sequence of Kappa-type opioid receptor (P41145 whole entry): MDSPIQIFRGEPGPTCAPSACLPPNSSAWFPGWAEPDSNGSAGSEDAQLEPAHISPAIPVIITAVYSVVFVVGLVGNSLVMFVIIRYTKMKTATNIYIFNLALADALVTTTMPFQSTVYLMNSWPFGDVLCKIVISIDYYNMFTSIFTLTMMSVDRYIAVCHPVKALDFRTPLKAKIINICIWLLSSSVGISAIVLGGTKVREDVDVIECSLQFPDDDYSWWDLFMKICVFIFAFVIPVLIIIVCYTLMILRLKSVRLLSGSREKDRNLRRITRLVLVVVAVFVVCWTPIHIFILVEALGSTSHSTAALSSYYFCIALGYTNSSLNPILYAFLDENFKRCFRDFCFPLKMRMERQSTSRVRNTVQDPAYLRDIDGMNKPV
Sequence of Delta-type opioid receptor (P41143 whole entry): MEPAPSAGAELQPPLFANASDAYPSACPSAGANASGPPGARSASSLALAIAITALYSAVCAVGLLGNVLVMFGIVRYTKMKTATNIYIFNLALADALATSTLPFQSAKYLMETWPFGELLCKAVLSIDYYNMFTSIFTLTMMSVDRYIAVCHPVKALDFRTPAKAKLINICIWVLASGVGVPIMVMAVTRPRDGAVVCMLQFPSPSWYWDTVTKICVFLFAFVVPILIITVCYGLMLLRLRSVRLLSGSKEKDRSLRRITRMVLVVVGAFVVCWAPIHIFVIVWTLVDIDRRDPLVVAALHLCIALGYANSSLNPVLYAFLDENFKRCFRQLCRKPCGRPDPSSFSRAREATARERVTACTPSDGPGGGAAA

For the compound `CCNC[C@@H]1CCCN1C[C@H](Cc1ccccc1)N(CC)C[C@H](Cc1ccc(O)cc1)N(CC)C[C@@H](N)Cc1ccc(O)cc1`, half-maximal inhibition in assay [1] (IC50) was put at 0.045 µM.
With `CNC[C@@H](Cc1ccccc1)N(C)C[C@H](Cc1ccc(O)cc1)N(C)C[C@@H](N)Cc1ccc(O)cc1`, the Activity result in assay [2] was “Antagonist”. For the same compound, the IC50 in assay [3] is 8.53 µM; in assay [4] it was 1.45 µM; in assay [5], 0.037 µM.
`CNC[C@H](Cc1ccc(O)cc1)N(Cc1ccccc1)C[C@H](Cc1ccc(O)cc1)NC`: the IC50 in assay [3] was 10.2 µM; in assay [4] it was 11.1 µM; in assay [5] it was 1.21 µM.
For the compound `CN(C)[C@@H](Cc1ccc(O)cc1)CN(C)[C@H](CNCc1ccccc1)Cc1ccc(O)cc1`, the IC50 in assay [3] came out at 8.26 µM; in assay [4], 2.36 µM; in assay [5] it was 0.038 µM.
On to `CNC[C@H](Cc1ccc(O)cc1)N(Cc1ccccc1)C[C@H](Cc1ccc(O)cc1)N(C)C`, for which the IC50 in assay [3] was 56.7 µM; in assay [4], 10.6 µM; in assay [5], 1.28 µM.
`NC[C@@H]1CCCN1C[C@H](Cc1ccccc1)NC[C@H](Cc1ccc(O)cc1)NC[C@@H](N)Cc1ccc(O)cc1` came in with an IC50 in assay [1] of 0.006 µM.
Take `CNC[C@@H](Cc1ccccc1)N(C)C[C@@H](Cc1ccc(O)cc1)N(C)C[C@H](Cc1ccc(O)cc1)N(C)C`: the Activity entry in assay [2] was “Antagonist”. The IC50 in assay [3] worked out at 17 µM; in assay [4], 22.4 µM; in assay [5], 0.876 µM.
In the case of `CNC[C@H](Cc1ccccc1)N(C)C[C@H](Cc1ccc(O)cc1)N(C)C[C@@H](Cc1ccc(O)cc1)N(C)C`, the Activity entry in assay [2] is “Antagonist”. Further, the IC50 in assay [3] amounted to 9.05 µM; in assay [4], 10.5 µM; in assay [5], 0.662 µM.
Regarding `CNC[C@@H]1CCCN1C[C@H](Cc1ccccc1)N(C)C[C@H](Cc1ccc(O)cc1)N(C)C[C@H](Cc1ccc(O)cc1)NC`, in assay [1], the midpoint of inhibition, the IC50, lay at 0.002 µM.
For the compound `CNC[C@H](Cc1ccccc1)N(C)C[C@H](Cc1ccc(O)cc1)N(C)C[C@H](Cc1ccc(O)cc1)N(C)C`, the Activity result in assay [2] is “Antagonist”. Further, the IC50 stood at 4.89 µM in assay [3], 1.05 µM in assay [4] and 0.0005 µM in assay [5].
In the case of `N[C@@H](Cc1ccc(O)cc1)CN(Cc1ccc2ccccc2c1)[C@@H](Cc1ccc(O)cc1)CN(Cc1ccc2ccccc2c1)[C@@H](Cc1ccccc1)CN1CCC[C@H]1CNCc1ccc2ccccc2c1`, in assay [1], the IC50 came out at 18.6 µM.
Regarding `CNC[C@H](Cc1ccccc1)N(C)C[C@@H](Cc1ccc(O)cc1)N(C)C[C@@H](Cc1ccc(O)cc1)N(C)C`, the Activity entry in assay [2] is “Antagonist”. Besides, the IC50 worked out at 17.8 µM in assay [3], 6.06 µM in assay [4] and 1.5 µM in assay [5].
Turning to `CNC[C@@H]1CCCN1C[C@H](Cc1ccccc1)N(C)C[C@H](Cc1ccc(O)cc1)N(C)C[C@@H](N)Cc1ccc(O)cc1`, the Activity entry in assay [2] is “Antagonist”. In assay [1], this compound showed an IC50 of 0.013 µM.
As for `CNC[C@@H](Cc1ccccc1)N(C)C[C@H](Cc1ccc(O)cc1)N(C)C[C@@H](Cc1ccc(O)cc1)N(C)C`, in assay [2], the Activity entry is “Antagonist”. Further, the IC50 in assay [3] stood at 11.3 µM; in assay [4] it was 15.6 µM; in assay [5], 0.958 µM.
`CNC[C@H](Cc1ccc(O)cc1)N(Cc1ccccc1)C[C@@H](N)Cc1ccc(O)cc1`: the IC50 in assay [3] turned out to be 35.6 µM; in assay [4], 14.4 µM; in assay [5] it was 0.882 µM.
`CN(C[C@@H](N)Cc1ccc(O)cc1)[C@H](CNCc1ccccc1)Cc1ccc(O)cc1`: the IC50 in assay [3] was 10.2 µM; in assay [4], 4.14 µM; in assay [5] it was 0.01 µM.
On to `CNC[C@@H](Cc1ccccc1)N(C)C[C@@H](Cc1ccc(O)cc1)N(C)C[C@@H](Cc1ccc(O)cc1)N(C)C`, for which the Activity result in assay [2] is “Antagonist”. The IC50 in assay [3] was determined as 4.97 µM; in assay [4] it was 8.76 µM; in assay [5], 0.835 µM.
In assay [1], `N[C@@H](Cc1ccc(O)cc1)CN(Cc1ccccc1)[C@@H](Cc1ccc(O)cc1)CN(Cc1ccccc1)[C@@H](Cc1ccccc1)CN1CCC[C@H]1CNCc1ccccc1` came in with an IC50 of 4.46 µM.
For the compound `CNC[C@@H]1CCCN1C[C@H](Cc1ccccc1)N(C)C[C@H](Cc1ccc(O)cc1)N(C)C[C@H](Cc1ccc(O)cc1)N(C)C`, in assay [1], half-maximal inhibition (IC50) required 0.008 µM.
Turning to `CNC[C@H](Cc1ccccc1)N(C)C[C@@H](Cc1ccc(O)cc1)N(C)C[C@@H](N)Cc1ccc(O)cc1`, the Activity result in assay [2] was “Antagonist”. Besides, the IC50 in assay [3] was 48.2 µM; in assay [4], 22.5 µM; in assay [5] it was 0.339 µM.
On to `CN(C)[C@H](CN[C@H](CN)Cc1ccc(O)cc1)Cc1ccc(O)cc1`, for which the values for the IC50 in assay [3], in assay [4] and in assay [5] were 17.9 µM, 22.6 µM and 0.262 µM, respectively.
